In ChEMBL document CHEMBL1149928, “Stabilization of a prostaglandin tertiary allylic alcohol system by fluorine: synthesis, acid stability studies and pharmacology of a 16-fluoromethyl analog of SC-46275” (1992):

What was measured:
[1] = system: Canis familiaris; assay: Compound was evaluated for the gastric antisecretory activity in food stimulated Pavlov pouch dogs by intrapouch administration; format: functional; settings: Canis lupus familiaris, Stomach
[2] = system: Rattus norvegicus; assay: Compound was evaluated for the diarrheal effects in adult male rats by intragastric administration; format: functional; settings: po

Row | SMILES | ED50 [1] [µg/kg] | ED50 [2] [µg/kg]
1 | COC(=O)CC/C=C\CC[C@H]1C(=O)C[C@@H](O)[C@@H]1/C=C/C[C@@](C)(O)/C=C/C1=CCCC1 | 0.01 | > 3160
2 | COC(=O)CC/C=C\CC[C@H]1C(=O)C[C@@H](O)[C@@H]1/C=C/C[C@@](O)(/C=C/C1=CCCC1)CF | 0.05 | > 3160
